From article PMC7822874, “Chemoprotective antimalarials identified through quantitative high-throughput screening of Plasmodium blood and liver stage parasites” (Scientific Reports, 2021) come the findings set out here.

For the assay, the system named is Plasmodium falciparum Dd2 asexual blood stage parasites. Put plainly: microbe, parasite or virus in culture. To be noted: Plasmodium falciparum, DD2, Erythrocyte, 72 h; read-out: AC50. Further details: species or system Plasmodium falciparum Dd2 in human erythrocytes; single determination (one 11-point concentration-response curve).

Usually AC50 stands for the concentration at which the activity in the assay is half-maximal. For `COc1cc(NC(=O)c2ccc(N)nc2)cc(C(=O)Nc2cccc(C(F)(F)F)c2)c1` [MLS003105961-01], the AC50 amounted to 5.31 µM.

Turning to `O=C(Nc1ccsc1C(=O)NC1CCCCC1)c1ccc(F)cc1` [MLS000546987-01], the concentration at half-maximal activity (AC50) was 6.68 µM.

For `Cc1ccc(CN2COc3ccc4c(-c5ccccc5)cc(=O)oc4c3C2)cc1` [NCGC00116312-01], the AC50 was 0.841 µM.

Turning to `CC1(c2ccccc2)N(Cc2ccccc2F)C(=O)OC12CCN(Cc1cccc(O)c1)CC2` (stereo not shown) [NCGC00415649-01], the AC50 came to 6.68 µM.

Consider `COc1ccccc1CN1CCn2c(nn(-c3ccc([N+](=O)[O-])cc3)c2=O)C1` [NCGC00479607-01], for which the half-maximal activity concentration (AC50) worked out at 5.96 µM.

Take `O=S(=O)(c1ccc(F)cc1)N1CCN(/C(S)=N/CC2CCCO2)CC1` (stereo not shown) [MLS001148319-01]: the AC50 came to 6.68 µM.

`COc1ccc(C)cc1NC(=O)N1CCCC2(C1)Nc1cccnc1N=C2NC1CCCC1` (stereo not shown) [NCGC00440441-01]: the AC50 is 6.68 µM.

Turning to `O=C(CCC[C@H]1NC[C@@H]2C[C@H]1CN(Cc1ccccc1)C2)NCCCN1CCCc2ccccc21` [NCGC00428635-01], the AC50 is 10.6 µM.

As for `CCCOc1ccc(-c2nonc2NC(=O)c2cc(OC)c(OC)c(OC)c2)cc1OCCC` [NCGC00116043-01], the AC50 is 5.96 µM.

Consider `Cc1cc(C)c(S(=O)(=O)n2ccc(-c3ccc(OCCN(C)c4ccccn4)cc3)n2)c(C)c1` [MLS000331310-01], for which the AC50 was found to be 7.5 µM.

Turning to `Cc1ccc(CN2CCCN(Cc3ccncc3)C(c3ccccc3)CC(=O)NCC2)s1` (stereo not shown) [NCGC00467183-01], the AC50 was 2.66 µM.

On to `Cc1cc(C)c(CNC(=O)c2cc(-c3ccnn3C)cc3c2OCCN3C(C)C)c(=O)[nH]1` [NCGC00417130-01], for which the AC50 turned out to be 15.3 µM.

Take `Cc1nc2sc(C(=O)Nc3ccc(F)cc3)c(N)c2c(-c2ccc(Br)cc2)c1C(=O)Nc1ccc(Cl)cc1` [NCGC00105115-01]: the AC50 was 8.41 µM.

For the compound `O=c1cc(-c2ccccc2)[nH]c2ccc(F)cc12` [MLS000517821-01], the AC50 was 5.96 µM.

In the case of `Cc1ccc(CN2CCc3oc(C)c(C(=O)NCCN4CCCCC4)c3C2)cc1` [NCGC00471970-01], the AC50 stood at 10.6 µM.

`Cc1ncc(CN2CCC(C(=O)Nc3ccc(-n4cccn4)cc3)CC2)s1` [MLS001101085-01]: the AC50 was determined as 4.73 µM.

Consider `CCCn1c(=N)c(C(=O)NCc2ccc3c(c2)OCO3)cc2c(=O)n3cccc(C)c3nc21` [MLS001305712-01], for which the AC50 was found to be 10.6 µM.

Consider `CC(=O)Nc1cc(-c2ccccc2)ccc1O` [MLS000030849-01], for which the AC50 worked out at 4.73 µM.

With `O=C(NCC1CCCCC1)c1cc2ccccc2cc1O` [MLS001141978-01], the AC50 came to 9.44 µM.

Regarding `CC(=O)Nc1ccc(CN2CC(N(C)c3ccccc3C)C2)cc1` [NCGC00476647-01], the AC50 amounted to 12.2 µM.

Consider `O=C(c1cc(C(=O)NCc2ccccc2)c(=O)n(Cc2ccccc2)c1)c1cc(Br)ccc1O` [MLS000402314-01], for which the AC50 was found to be 4.73 µM.

Regarding `CCN(CC(O)c1cccc(O)c1)C(=O)C12CC3CC(CC(C3)C1)C2` (stereo not shown) [MLS001166662-01], the AC50 was determined as 4.73 µM.

Regarding `c1ccc(Oc2ccc(Nc3cnc4ccc(N5CCOCC5)nn34)cc2)cc1` [NCGC00412601-01], the AC50 came out at 7.69 µM.

In the case of `CC1Cn2c(nnc2-c2cc3ccccc3cc2O)S1` (stereo not shown) [MLS000066435-01], the AC50 was found to be 4.73 µM.

`Cc1ccc(-c2cc(C(F)F)n3ncc(C(=O)N4CCCCC4c4cccnc4)c3n2)cc1` (stereo not shown) [MLS000665275-01]: the AC50 is 2.37 µM.

With `COc1ccc(NC(=O)Cn2cccc2-c2nc(-c3ccc(OC)c(F)c3)no2)cc1` [NCGC00445480-01], the AC50 came out at 4.73 µM.

For `CC(C)CN(CCNC(=O)c1cc(-c2ccc(Cl)s2)nc2ccccc12)CC(C)C` [NCGC00104475-01], the AC50 turned out to be 7.5 µM.

Turning to `CCN(CC)CCNC(=O)c1ccc(NC(=O)c2cccc(S(=O)(=O)N3CCc4ccccc43)c2)cc1` [MLS002169644-01], the AC50 was found to be 5.31 µM.

As for `CCCCN1C(=O)C(O)(CC(=O)c2ccc(C(C)(C)C)cc2)c2ccccc21` (stereo not shown) [NCGC00100209-01], the AC50 came out at 4.73 µM.

With `Cc1cc(C(F)(F)F)nn1CC(=O)NCCc1ncc(C)n1CC1CC1` [NCGC00469801-01], the AC50 was 10.6 µM.

Turning to `COCC1CN(Cc2cc(F)cc(Br)c2)CC12CCNCC2` (stereo not shown) [NCGC00461842-01], the AC50 worked out at 9.44 µM.

In the case of `COc1ccc(OCCn2cc(C(=O)c3ccco3)c3ccccc32)cc1` [NCGC00101886-01], the AC50 was 2.11 µM.

On to `CCOc1cccc(CC(=O)Nc2ccc3nc(N4CCCCC4)cc(C)c3c2)c1OCC` [NCGC00137846-01], for which the AC50 was found to be 6.68 µM.

On to `Cc1cc(N2CCC(C)CC2)nc(-n2nc(C)cc2C)n1` [MLS000109839-01], for which the half-maximal activity concentration (AC50) came to 2.99 µM.

With `CCC(=O)C1=C(c2cccc([N+](=O)[O-])c2)N(C(=O)CC)n2c(nnc2C2CCCCC2)S1` [NCGC00137266-01], the AC50 was 1.88 µM.

In the case of `O=C(Nc1ccc2c(N3CCCCC3)ncnc2c1)c1ccc(F)c(F)c1` [NCGC00425519-01], the AC50 is 4.73 µM.

Regarding `COc1cccc(-c2cc(C(=O)Nc3ccncc3)c3ccccc3n2)c1` [MLS001125696-01], the AC50 came out at 6.68 µM.

As for `C/C=C/c1cc(CN2CCN(c3ccccc3)CC2)c(O)c(OC)c1` [MLS001002110-01], the AC50 is 5.96 µM.

Regarding `N#Cc1cc(C#N)c(N2CCN(c3cccc(Cl)n3)CC2)nc1N` [MLS000325470-01], the AC50 came out at 3.35 µM.

Turning to `COc1ccc(NC(=O)c2c(C)oc3ccc(O)c(CN4CCCC(C)C4)c23)cc1Cl` (stereo not shown) [NCGC00115530-01], the AC50 was determined as 0.944 µM.

For the compound `Cc1ccccc1N(C)C1CN(Cc2ccc(C#N)cc2)C1` [NCGC00476680-01], the AC50 came out at 3.85 µM.

`CC1CCN(C(=O)CSc2nc(-c3ccc(C(C)C)cc3)no2)CC1` [NCGC00127906-01]: the AC50 came to 1.19 µM.

`COc1ccc(CC(=O)NCc2ccccn2)cc1OC` [MLS000039135-01]: the AC50 worked out at 7.5 µM.

For `Cn1c(=O)[nH]c2nnc(-c3ccc(Cl)c(Cl)c3)nc2c1=O` [MLS000768805-01], the AC50 came to 8.41 µM.

On to `CC1(c2ccccc2)N(Cc2ccc(O)cc2)C(=O)OC12CCN(Cc1c[nH]c3ccccc13)CC2` (stereo not shown) [NCGC00415668-01], for which the AC50 is 5.31 µM.

Turning to `Cc1ccc(Cl)cc1N1CCN(C(=O)c2cn(CC(C)C)c(=O)c3c2c2ccccc2n3C)CC1` [NCGC00106023-01], the AC50 turned out to be 3.35 µM.

With `CCOc1c(Cl)cc(CNC(C)C(O)c2ccccc2)cc1OC` (stereo not shown) [MLS000679789-01], the AC50 stood at 6.68 µM.

Regarding `CC(=O)C1=C(c2ccc(Br)cc2)N(C(C)=O)n2c(nnc2C2CCCCC2)S1` [NCGC00137196-01], the AC50 stood at 2.99 µM.

`COc1cccc(CN2C(=O)OC3(CCN(Cc4ccc5c(c4)CCO5)CC3)C2(C)c2cccnc2)c1` (stereo not shown) [NCGC00415555-01]: the AC50 amounted to 4.73 µM.

As to `CCOC(=O)c1c(CSC(=N)N)n(-c2ccc(C)cc2)c2cc(Br)c(OC(C)=O)cc12` [MLS001304955-01], the AC50 was 5.96 µM.

Regarding `O=C(Nc1ccc(F)cc1F)N1CCOc2ccc(CN3CCc4ccccc4C3)cc2C1` [NCGC00471236-01], the AC50 is 16.8 µM.

For `O=C(CSc1nc(-c2ccccc2)no1)N1CCN(c2ccc(F)cc2)CC1` [NCGC00127880-01], the AC50 was 4.22 µM.

Turning to `COc1ccc(S(=O)(=O)N(C)C)cc1NC(C)C(=O)Nc1cccc(C#N)c1` (stereo not shown) [MLS000761043-01], the AC50 amounted to 6.68 µM.

`COc1ccc(-c2nc3sc(CCNC(=O)c4ccc(C(C)(C)C)cc4)c(C)n3n2)cc1` [NCGC00137079-01]: the AC50 is 2.11 µM.

For the compound `O[C@]1(c2ccccc2)CCN(Cc2ccco2)C[C@H]1N1CCCC1` [NCGC00442602-01], the AC50 amounted to 8.41 µM.

As to `O=C1Nc2ccccc2CC12CCN2Cc1ccccn1` (stereo not shown) [NCGC00477299-01], the AC50 came out at 4.33 µM.

Consider `COc1ccccc1NC(=O)CSc1nc2c(oc3ccccc32)c(=O)n1-c1ccc(C)cc1` [NCGC00112704-01], for which the AC50 turned out to be 15 µM.

Consider `CCNc1nc(NCc2ccccc2)nc(Oc2ccc(=O)[nH]n2)n1` [MLS000097254-01], for which the AC50 is 2.11 µM.

With `COc1ccc(Nc2cc(C)c3cc(NC(=O)c4cc(OC)cc(OC)c4)ccc3n2)cc1` [NCGC00124306-01], the AC50 was 0.75 µM.

With `COC(=O)c1ccc2nc(CO[C@H]3CN(Cc4cn(C)c5ccccc45)C[C@H]3F)[nH]c2c1` [NCGC00392963-01], the AC50 stood at 13.3 µM.

In the case of `Cn1cccc1CN1CCC(N2CC(OCC3CC3)C23CCCCC3)CC1` (stereo not shown) [NCGC00463411-01], the AC50 is 7.5 µM.

In the case of `Cc1nc(-c2ccc(F)cc2)n(CC(=O)Nc2cccc(Cl)c2)c(=O)c1CCO` [NCGC00470975-01], the AC50 is 15 µM.

With `COc1ccccc1N1CCN([C@H]2[C@@H]3OC[C@@H](O3)[C@@H](NCc3ccc(-c4ccccc4)cc3)[C@@H]2O)CC1` [NCGC00392675-01], the AC50 worked out at 15 µM.

`CCc1c(C)c2ccc3c(c2oc1=O)CN(Cc1ccccc1)CO3` [NCGC00125086-01]: the AC50 was 2.11 µM.

In the case of `COc1ccc(N2CCN(c3oc(/C=C/c4cc(OC)c(OC)c(OC)c4)nc3C#N)CC2)cc1` [NCGC00116464-01], the AC50 was determined as 2.66 µM.

As for `CC(=O)N1c2c(cc(Br)cc2[S+](=O)([O-])N2CCN(c3cc(C)ccc3C)CC2)CC1C` (stereo not shown) [NCGC00104358-01], the AC50 turned out to be 11.9 µM.

With `O=C1CO[C@H]2CCN(Cc3ccc4c(c3)CCO4)CC[C@@H]2N1Cc1ccccc1` [NCGC00409937-01], the AC50 is 17.2 µM.

Regarding `Cc1ccccc1NC(=O)c1c(C)oc2ccc(O)c(CN(C)Cc3ccccc3)c12` [NCGC00115709-01], the AC50 came out at 2.37 µM.

Turning to `CN1N=C(C(=O)N2CCc3c([nH]c4ccccc34)C2c2ccccc2Cl)CCC1=O` (stereo not shown) [MLS000733406-01], the AC50 came out at 5.31 µM.

For `Cc1oc2ccc(O)c(CN(C)Cc3ccccc3)c2c1C(=O)Nc1cccc(C(F)(F)F)c1` [NCGC00115691-01], the AC50 was 2.11 µM.

As to `COc1ccccc1Nc1cnc2ccc(-c3ccc(F)cc3)nn12` [NCGC00412490-01], the AC50 was 6.85 µM.

For the compound `CC(C)NC(=O)OC[C@H]1C[C@@H]2CCN1C[C@@H]2c1cc(-c2ccc(F)cc2)nn1C` [NCGC00399718-01], the AC50 turned out to be 13.7 µM.

`CCOc1ccc(CN2C(=O)c3ccccc3Sc3ccc(C(=O)N4CCC5(CC4)OCCO5)cc32)cc1` [NCGC00108218-01]: the AC50 is 4.22 µM.
